Experiment [1] has as its target T1, P2X7 (Homo sapiens (Human), UniProt Q99572). Kind of experiment: P2X7 antagonism in human peripheral blood mononuclear cells (PBMCs), IL-1β release (LPS + Bz-ATP, ELISA). In kind it is cell-based. The settings on record: P2X7, 10 μM test compound, LPS 30 ng/ml + Bz-ATP 0.5 mM, read-out: PBMC @10 μM (% control).
Experiment [2] concerns the target T1, P2X7. Kind of experiment: Radioligand binding ([3H]A-804598) to membranes of human P2X7-1321N1 cells. The note with it: human P2X7-1321N1 membranes, tracer tritiated A-804598, 1 hour at 4° C.
A further experiment addresses rat P2X7 (Rattus norvegicus (Rat), UniProt Q64663). Kind of experiment: P2X7 antagonism in recombinant rat P2X7 cells (column headed P2X7 Rat IC50). In kind it is binding.
In experiment [3] the target is T1, P2X7. The experiment in a line: P2X7 antagonism in human whole blood, IL-1β release (LPS + Bz-ATP, ELISA). The settings on record: LPS 30 ng/ml + Bz-ATP 1 mM. In kind it is cell-based.
Setting [4] is: read-out: Human Whole Blood IC50.

This note sets out measurements from US10150766B2, “P2X7 modulators” (Jansssen Pharmaceutica NV, priority 2014, dated 2018).

Where two headings read alike, the source gives them in different places.

T1 sequence (Q99572 whole entry): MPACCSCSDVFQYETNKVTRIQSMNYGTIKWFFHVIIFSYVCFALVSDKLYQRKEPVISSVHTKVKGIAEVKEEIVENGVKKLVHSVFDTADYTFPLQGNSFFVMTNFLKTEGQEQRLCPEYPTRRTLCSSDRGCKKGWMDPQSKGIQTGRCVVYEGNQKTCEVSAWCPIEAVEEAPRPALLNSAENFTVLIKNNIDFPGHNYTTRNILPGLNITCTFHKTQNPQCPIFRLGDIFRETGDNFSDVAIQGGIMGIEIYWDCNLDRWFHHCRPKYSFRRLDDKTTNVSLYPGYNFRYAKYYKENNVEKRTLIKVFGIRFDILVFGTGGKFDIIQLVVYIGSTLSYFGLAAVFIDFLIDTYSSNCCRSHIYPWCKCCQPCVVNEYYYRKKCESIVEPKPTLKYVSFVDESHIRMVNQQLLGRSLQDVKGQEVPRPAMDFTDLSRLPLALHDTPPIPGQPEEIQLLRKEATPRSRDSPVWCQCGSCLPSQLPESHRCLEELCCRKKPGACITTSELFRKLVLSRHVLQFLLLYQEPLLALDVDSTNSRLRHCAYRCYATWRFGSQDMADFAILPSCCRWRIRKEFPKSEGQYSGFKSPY
Chain of rat P2X7 (Q64663 whole entry): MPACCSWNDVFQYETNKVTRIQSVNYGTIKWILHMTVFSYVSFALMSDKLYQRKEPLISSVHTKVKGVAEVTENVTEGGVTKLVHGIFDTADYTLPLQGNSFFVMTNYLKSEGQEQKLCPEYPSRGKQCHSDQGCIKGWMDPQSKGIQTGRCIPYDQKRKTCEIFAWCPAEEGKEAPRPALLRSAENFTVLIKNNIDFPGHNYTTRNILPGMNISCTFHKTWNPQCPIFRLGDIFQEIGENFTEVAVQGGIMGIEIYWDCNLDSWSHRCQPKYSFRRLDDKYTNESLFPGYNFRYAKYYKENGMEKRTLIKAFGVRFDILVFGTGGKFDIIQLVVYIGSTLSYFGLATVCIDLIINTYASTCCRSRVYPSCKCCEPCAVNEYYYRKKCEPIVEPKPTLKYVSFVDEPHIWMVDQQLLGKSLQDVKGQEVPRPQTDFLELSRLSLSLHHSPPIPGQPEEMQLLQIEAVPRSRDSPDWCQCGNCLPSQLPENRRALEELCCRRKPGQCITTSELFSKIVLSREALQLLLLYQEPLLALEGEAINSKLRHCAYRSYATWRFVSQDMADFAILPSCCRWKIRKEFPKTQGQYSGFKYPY

Take `Cc1nc(-c2ccn[nH]2)c2c(n1)[C@@H]1CCC[C@H](C2)N1C(=O)c1cccc(Cl)c1Cl` [Example 11, (2,3-dichlorophenyl)((6R,10S)-2-methyl-4-(1H-pyrazol-5-yl)-5,6,7,8,9,10-hexahydro-6,10-epiminocycloocta[d]pyrimidin-11-yl)methanone]: at P2X7 [1], the remaining activity at 10 µM is 24.4%. The same compound gave a Ki at P2X7 [2] of 501 nM. Moreover, the IC50 is 944 nM at rat P2X7 and 0.302 µM on P2X7 [3] (Human Whole Blood IC50 (μM)).
For `Cc1nc(-c2ncccn2)c2c(n1)[C@H]1CCC[C@@H](C2)N1C(=O)c1ccc(Cl)c(F)c1Cl` [Example 44, (2,4-dichloro-3-fluorophenyl)((6S,10R)-2-methyl-4-(pyrimidin-2-yl)-5,6,7,8,9,10-hexahydro-6,10-epiminocycloocta[d]pyrimidin-11-yl)methanone], the remaining activity at 10 µM at P2X7 [1] was -11.6%. This compound also yielded a Ki at P2X7 [2] of 50.1 nM. Moreover, the IC50 at rat P2X7 was found to be 251 nM; on P2X7 [3] (setting [4]), 0.156 µM.
Regarding `Cc1nc(-c2ccnn2C)c2c(n1)[C@H]1CCC[C@@H](C2)N1C(=O)c1cccc(Cl)c1Cl` [Example 59, (2,3-dichlorophenyl)((6S,10R)-2-methyl-4-(1-methyl-1H-pyrazol-5-yl)-5,6,7,8,9,10-hexahydro-6,10-epiminocycloocta[d]pyrimidin-11-yl)methanone], the remaining activity at 10 µM on P2X7 [1] is -1.8%. Moreover, affinity on P2X7 [2] was put at a Ki of 135 nM. Besides, the IC50 at rat P2X7 came out at 1090 nM; on P2X7 [3] (setting [4]), 0.372 µM.
Take `Cc1nc(-c2ncccn2)c2c(n1)[C@H]1CCC[C@@H](C2)N1C(=O)c1cccc(C(F)(F)F)c1Cl` [Example 41, (2-chloro-3-(trifluoromethyl)phenyl)((6S,10R)-2-methyl-4-(pyrimidin-2-yl)-5,6,7,8,9,10-hexahydro-6,10-epiminocycloocta[d]pyrimidin-11-yl)methanone]: the remaining activity at 10 µM at P2X7 [1] was -5.6%. The Ki on P2X7 [2] was found to be 29.5 nM. The results for the IC50 on rat P2X7 and at P2X7 [3] (Human Whole Blood IC50 (μM)) were 15.8 nM and 0.021 µM, respectively.
As to `Cc1nc(-c2ccnn2C)c2c(n1)[C@H]1CCC[C@@H](C2)N1C(=O)c1cccc(C(F)(F)F)c1C` [Example 57, (2-methyl-3-(trifluoromethyl)phenyl)((6S,10R)-2-methyl-4-(1-methyl-1H-pyrazol-5-yl)-5,6,7,8,9,10-hexahydro-6,10-epiminocycloocta[d]pyrimidin-11-yl)methanone], the remaining activity at 10 µM at P2X7 [1] is -0.3%. Moreover, at P2X7 [2], the affinity, expressed as Ki, was 190 nM. For the same compound, the IC50 was 597 nM on rat P2X7 and 0.191 µM at P2X7 [3] (setting [4]).
